Laboratory results from patent US20250312394A1, “Lacticaseibacillus Rhamnosus DY801 and Application Thereof” (priority 2024, published 2025).
In brackets after ≈: the same amount, converted by molar mass. Structures can show the parent of a compound that is named as a salt. Where two headings read alike, the source gives them in different places.

Legend:
[1] = tested on: Lacticaseibacillus rhamnosus DY801; assay: Antibiotic sensitivity by broth trace-dilution method (MIC); format: cell-based; conditions: for MIC: Lacticaseibacillus rhamnosus, read-out: Detected MIC; for Determination of the reading: sensitivity of DY801 to the antibiotic according to the General Standard
Protocol: In the present example, the sensitivity of Lacticaseibacillus rhamnosus DY801 against eight antibiotics was tested using the broth trace-dilution method according to “the General Standard of Probiotics for Food Use” (hereinafter referred as General Standard) published by the Chinese Institute of Food Science and Technology. The eight antibiotics were: tetracycline, streptomycin, ciprofloxacin hydrochloride, clindamycin, vancomycin, chloramphenicol, ampicillin and gentamicin. […] The minimum inhibitory concentration (hereinafter referred as MIC) of Lacticaseibacillus rhamnosus DY801 for each antibiotic was read after 48 hours. The strain thereof was determined to be sensitive(S), intermediate (I), resistant (R) and not required (n.r.) for the antibiotic according to the bacterial resistance criteria provided in the General Standard, and the results are shown in Table 2.

[2] = tested on: Lacticaseibacillus rhamnosus DY801; conditions: bacterial resistance criteria of the General Standard of Probiotics for Food Use; cited from earlier work
[3] = DY801 suspension 1×10^8 CFU/mL, anaerobic 37° C., read after 48 hours

CCC[C@@H]1C[C@@H](C(=O)N[C@@H]([C@H]2O[C@H](SC)[C@H](O)[C@@H](O)[C@H]2O)[C@H](C)Cl)N(C)C1 [clindamycin]
Detected MIC [1, 3]: 4 µg/mL
MIC [1, 3]: 4 µg/mL (≈ 9.41 µM)
Determination of the reading [1]: S

CC1(C)S[C@@H]2[C@H](NC(=O)[C@H](N)c3ccccc3)C(=O)N2[C@H]1C(=O)O [ampicillin]
MIC [1, 3]: 4 µg/mL (≈ 11.4 µM)
Determination of the reading [1]: S
MIC in the General Standard [2]: 4 µg/mL (≈ 11.4 µM)

CN[C@H](CC(C)C)C(=O)N[C@H]1C(=O)N[C@@H](CC(N)=O)C(=O)N[C@H]2C(=O)N[C@H]3C(=O)N[C@H](C(=O)N[C@H](C(=O)O)c4cc(O)cc(O)c4-c4cc3ccc4O)[C@H](O)c3ccc(c(Cl)c3)Oc3cc2cc(c3O[C@@H]2O[C@H](CO)[C@@H](O)[C@H](O)[C@H]2O[C@H]2C[C@](C)(N)[C@H](O)[C@H](C)O2)Oc2ccc(cc2Cl)[C@H]1O [vancomycin]
MIC ([1]; DY801, 48 h): 64 µg/mL (≈ 44.2 µM)

[H]/N=C(/N)N[C@H]1[C@H](O)[C@@H](O)[C@H](O[C@@H]2O[C@@H](C)[C@](O)(C=O)[C@H]2O[C@@H]2O[C@@H](CO)[C@H](O)[C@@H](O)[C@@H]2NC)[C@@H](N/C(N)=N\[H])[C@@H]1O [streptomycin]
MIC [1, 3]: 32 µg/mL (≈ 55 µM)
Determination of the reading [1]: S
MIC in the General Standard [2]: 32 µg/mL (≈ 55 µM)

gentamicin [gentamycin]
Detected MIC [1, 3]: 16 µg/mL
Determination of the reading [1]: S
MIC in the General Standard [2]: 16 µg/mL

O=C(N[C@H](CO)[C@H](O)c1ccc([N+](=O)[O-])cc1)C(Cl)Cl [chloromycetin, chloramphenicol]
Detected MIC [1, 3]: 2 µg/mL
Determination of the reading [1]: S
MIC in the General Standard [2]: 4 µg/mL (≈ 12.4 µM)

CN(C)[C@@H]1C(O)=C(C(N)=O)C(=O)[C@@]2(O)C(O)=C3C(=O)c4c(O)cccc4[C@@](C)(O)[C@H]3C[C@@H]12 [tetracycline]
MIC [1, 3]: 8 µg/mL (≈ 18 µM)
Determination of the reading [1]: S

O=C(O)c1cn(C2CC2)c2cc(N3CCNCC3)c(F)cc2c1=O [ciprofloxacin hydrochloride]
MIC [1, 3]: 64 µg/mL
